Measurements taken from patent US7351728B2, “Oxazolyl-aryloxyacetic acid derivatives and their use as PPAR agonists” (Eli Lilly and Company, priority 2003, dated 2008).

Legend:
huPPARγ = biological target: T1, huPPARγ (Homo sapiens, UniProt P37231); test: Cotransfection assay in CV-1 cells, AOX PPRE luciferase reporter; type: cell-based; set-up: expressed in transfected cells; host or cells: CV-1 cells; conditions: cotransfection efficacy relative to PPARγ agonist reference molecule, read-out: huPPARγ CTF Eff. (%)
T1 sequence (P37231 1-505): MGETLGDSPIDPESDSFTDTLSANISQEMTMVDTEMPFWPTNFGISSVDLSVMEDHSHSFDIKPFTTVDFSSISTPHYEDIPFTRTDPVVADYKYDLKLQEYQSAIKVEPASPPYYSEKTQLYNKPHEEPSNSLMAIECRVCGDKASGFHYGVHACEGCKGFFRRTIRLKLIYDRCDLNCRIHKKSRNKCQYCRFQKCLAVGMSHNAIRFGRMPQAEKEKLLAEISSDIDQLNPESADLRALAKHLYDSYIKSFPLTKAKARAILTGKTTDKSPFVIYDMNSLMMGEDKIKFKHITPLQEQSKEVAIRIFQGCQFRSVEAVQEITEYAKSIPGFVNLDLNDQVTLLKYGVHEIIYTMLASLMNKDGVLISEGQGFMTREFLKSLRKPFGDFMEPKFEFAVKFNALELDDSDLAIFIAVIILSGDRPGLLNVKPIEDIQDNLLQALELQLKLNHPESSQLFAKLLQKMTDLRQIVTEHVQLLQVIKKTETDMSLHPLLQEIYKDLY
T1 sequence (P19793 1-462 partner): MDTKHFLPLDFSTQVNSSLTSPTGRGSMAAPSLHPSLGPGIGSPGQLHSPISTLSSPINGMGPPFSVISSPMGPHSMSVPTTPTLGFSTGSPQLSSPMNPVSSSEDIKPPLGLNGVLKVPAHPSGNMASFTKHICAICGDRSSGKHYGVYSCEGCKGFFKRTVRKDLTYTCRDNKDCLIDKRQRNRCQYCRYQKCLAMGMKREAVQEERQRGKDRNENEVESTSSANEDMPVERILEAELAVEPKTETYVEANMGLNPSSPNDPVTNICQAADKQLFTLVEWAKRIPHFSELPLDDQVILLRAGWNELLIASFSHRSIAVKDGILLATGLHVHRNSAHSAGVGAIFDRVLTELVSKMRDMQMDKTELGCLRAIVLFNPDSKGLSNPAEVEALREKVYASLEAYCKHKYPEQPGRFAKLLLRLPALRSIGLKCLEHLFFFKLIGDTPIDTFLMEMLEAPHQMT
Experimental: DNA-dependent binding (ABCD binding) was carried out using SPA technology with PPAR receptors. Tritium-labeled PPARα and PPARγ agonists were used as radioligands for generating displacement curves and IC50 values with compounds of the invention. Cotransfection assays were carried out in CV-1 cells. The reporter plasmid contained an acylCoA oxidase (AOX) PPRE and TK promoter upstream of the luciferase reporter cDNA. Appropriate PPARs and RXRα were constitutively expressed using plasmids containing the CMV promoter. […] In order to eliminate such interference, a GAL4 chimeric system was used in which the DNA binding domain of the transfected PPAR was replaced by that of GAL4, and the GAL4 response element was utilized in place of the AOX PPRE. Cotransfection efficacy was determined relative to PPARα agonist and PPARγ agonist reference molecules. Efficacies were determined by computer fit to a concentration-response curve, or in some cases at a single high concentration of agonist (10 μM). For binding or cotransfection studies with receptors other than PPARs, similar assays were carried out using appropriate ligands, receptors, reporter constructs, etc., for that particular receptor.
These studies were carried out to evaluate the ability of compounds of the invention to bind to and/or activate various nuclear transcription factors, particularly huPPARα (“hu” indicates “human”) and huPPARγ. These studies provide in vitro data concerning efficacy and selectivity of compounds of the invention. Furthermore, binding and cotransfection data for compounds of the invention were compared with corresponding data for marketed compounds that act on either huPPARα or huPPARγ.
Binding and cotransfection data for representative compounds of the invention are compared with corresponding data for reference compounds in Table II.

SMILES: CCc1cc(OCCc2nc(-c3ccccc3)oc2C)ccc1OC(C)(C)C(=O)O [Example 30A, 2-{2-Ethyl-4-[2-(5-methyl-2-phenyloxazol-4-yl)ethoxy]phenoxy}2-methylpropionic acid]
- Emax (huPPARγ): 92%

SMILES: Cc1cc(OCCc2nc(-c3ccccc3)oc2C)ccc1OC(C)(C)C(=O)O [Example 24, 2-Methyl-2-{2-methyl-4-[2-(5-methyl-2-phenyloxazol-4-yl)ethoxy]phenoxy}propionic acid]
- Emax (huPPARγ): 94%
- melting point: 117 °C

SMILES: CCCCc1cc(OC(C)(C)C(=O)O)ccc1OCCc1nc(-c2ccccc2)oc1C [Example 31F, 2-{3-Butyl-4-[2-(5-methyl-2-phenyloxazol-4-yl)ethoxy]phenoxy}-2-methylpropionic acid]
- Emax (huPPARγ): 51%

SMILES: CCc1ccc(-c2nc(CCOc3ccc(OC(C)(C)C(=O)O)cc3)c(C)o2)cc1 [Example 13, 2-(4-{2-[2-(4-Ethylphenyl)-5-methyloxazol-4-yl]ethoxy}phenoxy)-2-methylpropionic acid]
- Emax (huPPARγ): 109%

SMILES: CCCc1cc(OCCc2nc(-c3ccccc3)oc2C)ccc1OC(C)(C)C(=O)O [Example 26A, 2-Methyl-2-{4-[2-(5-methyl-2-phenyloxazol-4-yl)ethoxy]-2-propylphenoxy}propionic acid]
- Emax (huPPARγ): 74%

SMILES: CCc1cccc(-c2nc(CCOc3ccc(OC(C)(C)C(=O)O)cc3)c(C)o2)c1 [Example 12, 2-(4-{2-[2-(3-Ethylphenyl)-5-methyloxazol-4-yl]ethoxy}phenoxy)-2-methylpropionic acid]
- Emax (huPPARγ): 66%
- melting point: 134 to 135 °C

SMILES: Cc1oc(-c2cccc(CCc3ccccc3)c2)nc1CCOc1ccc(OC(C)(C)C(=O)O)cc1 [Example 12A, 2-Methyl-2-(4-{2-[5-methyl-2-(3-phenethylphenyl)oxazol-4-yl]ethoxy}phenoxy)-propionic acid]
- Emax (huPPARγ): 170%
- melting point: 124 to 125 °C

SMILES: Cc1oc(-c2cccc(Br)c2)nc1CCOc1ccc(OC(C)(C)C(=O)O)cc1 [Example 9A, 2-(4-{2-[2-(3-Bromophenyl)-5-methyloxazol-4-yl]ethoxy}phenoxy)-2-methylpropionic acid]
- Emax (huPPARγ): 60%
- melting point: 158 to 159 °C

SMILES: Cc1oc(-c2ccccc2)nc1CCOc1ccc(OC(C)(C)C(=O)O)cc1 [Example 1, 2-Methyl-2-{4-[2-(5-methyl-2-phenyloxazol-4-yl)ethoxy]phenoxy}propionic acid]
- Emax (huPPARγ): 69%

SMILES: CCCc1cc(OCCc2nc(-c3ccccc3)oc2C)ccc1OCC(=O)O [Example 26, {4-[2-(5-methyl-2-phenyl-oxazol-4-yl)ethoxy]-2-propylphenoxy}acetic acid]
- Emax (huPPARγ): 52%

SMILES: Cc1oc(-c2ccccc2)nc1CCOc1ccc(OC(C)(C)C(=O)O)c(CCc2ccccc2)c1 [Example 30J, 2-Methyl-2-{4-[2-(5-methyl-2-phenyloxazol-4-yl)ethoxy]-2-phenethylphenoxy}propionic acid]
- Emax (huPPARγ): 50%

SMILES: Cc1oc(-c2ccccc2)nc1CCOc1ccc(OC(C)(C)C(=O)O)c(CC(C)C)c1 [Example 30C, 2-{2-Isobutyl-4-[2-(5-methyl-2-phenyloxazol-4-yl)ethoxy]phenoxy}-2-methylpropionic acid]
- Emax (huPPARγ): 63%

SMILES: Cc1oc(-c2ccccc2)nc1CCOc1ccc(OC(C)(C)C(=O)O)c(Cc2ccccc2)c1 [Example 32, 2-{2-Benzyl-4-[2-(5-methyl-2-phenyloxazol-4-yl)ethoxy]phenoxy}-2-methylpropionic acid]
- Emax (huPPARγ): 80%

SMILES: Cc1oc(-c2ccc(OC3CCCCC3)cc2)nc1CCOc1ccc(OC(C)(C)C(=O)O)cc1 [Example 21, 2-(4-{2-[2-(4-Cyclohexyloxy-phenyl)-5-methyl-oxazol-4-yl]-ethoxy}-phenoxy)-2-methyl-propionic acid]
- Emax (huPPARγ): 85%

SMILES: CCCc1cc(OC(C)(C)C(=O)O)ccc1OCCc1nc(-c2ccccc2)oc1C [Example 27A, 2-Methyl-2-{4-[2-(5-methyl-2-phenyloxazol-4-yl)ethoxy]-3-propylphenoxy}propionic acid]
- Emax (huPPARγ): 63%

SMILES: Cc1oc(-c2ccccc2)nc1CCOc1ccc(OC(C)(C)C(=O)O)c2ccccc12 [Example 37, 2-Methyl-2-{4-[2-(5-methyl-2-phenyl-oxazol-4-yl)-ethoxy]-naphthalen-1-yloxy}-propionic acid]
- Emax (huPPARγ): 60%

SMILES: Cc1oc(-c2ccccc2)nc1CCOc1ccc(OC(C)(C)C(=O)O)c2c1CCCC2 [Example 38, 2-Methyl-2-{4-[2-(5-methyl-2-phenyl-oxazol-4-yl)-ethoxy]-5,6,7,8-tetrahydro-naphthalen-1-yloxy}-propionic acid]
- Emax (huPPARγ): 65%
